Measurements as given in patent publication US12234227B2, “Pyrazole derivatives as H4 antagonist compounds” (NXERA PHARMA UK LIMITED, priority 2018, dated 2025).
Structures can show the parent of a compound that is named as a salt.

Key:
[1] = target: T1, human H4 receptor (Homo sapiens, UniProt Q9H3N8); test: H4 Antagonist Functional Dynamic Mass Redistribution Assay; assay type: cell-based; conditions: H4 antagonist activity, read-out: Human H4 DMR fpKb (converted)
T1 construct: expressed in transfected cells; host or cells: HEKf cells transduced with baculovirus
Method: H4 Antagonist Functional Dynamic Mass Redistribution Assay
HEKf cells were infected using baculovirus expressing the human H4 receptor, plated into fibronectin-coated EPIC plates at a density of 10,000 cells/well and incubated overnight at 37° C. The medium on cells was changed to 30 μL HBSS with 20 mM HEPES per well and 30 nL DMSO were added per well by LabCyte ECHO acoustic dispensing. Following 2 h equilibration at room temperature, 30 nL of H4 ligands prepared in DMSO were stamped by LabCyte ECHO acoustic dispensing into seeded EPIC plates and cellular dynamic mass redistribution was monitored using a Corning EPIC plate reader. Following 45 min measurement, 30 nL/well of histamine EC80 was added and monitored to obtain antagonist assay data. Maximum baseline-corrected responses in […] were used to generate concentration response curves. EC50 values were generated using a 4-parameter logistical fit equation to quantify agonist potencies. Functional antagonist affinity values were generated using the Cheng-Prusoff equation to calculate a pKb value using the antagonist assay data.

[2] = target: hERG (Homo sapiens, UniProt Q12809); test: hERG Assay (QPatch automated patch clamp; single-concentration assay at 30 μM and pIC50 assay); conditions: for inhibition at 30 µM: human, CHO cells stably expressing hERG
[3] = target: T1, human H4 receptor; test: H4 Antagonist Functional cAMP Gi Assay; assay type: cell-based; conditions: H4 antagonist activity, read-out: Human H4 CAMP fpKb (converted)
Method: H4 Antagonist Functional cAMP Gi Assay
HEKf cells were infected overnight using baculovirus expressing the human H4 receptor, then centrifuged at 1,200 rpm for 5 min, frozen in cell freezing medium (Sigma) and stored at −150° C. On the day of assay, the cells were thawed and resuspended in HBSS with 500 nM IBMX to achieve a density of 1,500 cells/well. H4 ligands were prepared in DMSO and stamped by LabCyte ECHO acoustic dispensing at 25 nL in low volume plates. 10 μL/well cells were plated in the presence of 1 μM forskolin, subjected to centrifugation at 1,200 rpm for 1 min and incubated for 30 min prior to addition of Cisbio cAMP detection reagents to a total volume 20 μL/well. For the antagonist assay, cells were pre-incubated with H4 antagonist ligands for 30 min prior to addition of EC80 concentration of histamine and a further 30 min incubation. Following detection reagent addition and shaking at room temperature for 60 min, cAMP accumulation was measured using HTRF on a PheraStar plate reader. EC50 values were generated using a 4-parameter logistical fit equation to quantify agonist potencies. Functional antagonist affinity values were generated using the Cheng-Prusoff equation to calculate a pKb value using the antagonist assay data.

Chain of hERG (Q12809 whole entry): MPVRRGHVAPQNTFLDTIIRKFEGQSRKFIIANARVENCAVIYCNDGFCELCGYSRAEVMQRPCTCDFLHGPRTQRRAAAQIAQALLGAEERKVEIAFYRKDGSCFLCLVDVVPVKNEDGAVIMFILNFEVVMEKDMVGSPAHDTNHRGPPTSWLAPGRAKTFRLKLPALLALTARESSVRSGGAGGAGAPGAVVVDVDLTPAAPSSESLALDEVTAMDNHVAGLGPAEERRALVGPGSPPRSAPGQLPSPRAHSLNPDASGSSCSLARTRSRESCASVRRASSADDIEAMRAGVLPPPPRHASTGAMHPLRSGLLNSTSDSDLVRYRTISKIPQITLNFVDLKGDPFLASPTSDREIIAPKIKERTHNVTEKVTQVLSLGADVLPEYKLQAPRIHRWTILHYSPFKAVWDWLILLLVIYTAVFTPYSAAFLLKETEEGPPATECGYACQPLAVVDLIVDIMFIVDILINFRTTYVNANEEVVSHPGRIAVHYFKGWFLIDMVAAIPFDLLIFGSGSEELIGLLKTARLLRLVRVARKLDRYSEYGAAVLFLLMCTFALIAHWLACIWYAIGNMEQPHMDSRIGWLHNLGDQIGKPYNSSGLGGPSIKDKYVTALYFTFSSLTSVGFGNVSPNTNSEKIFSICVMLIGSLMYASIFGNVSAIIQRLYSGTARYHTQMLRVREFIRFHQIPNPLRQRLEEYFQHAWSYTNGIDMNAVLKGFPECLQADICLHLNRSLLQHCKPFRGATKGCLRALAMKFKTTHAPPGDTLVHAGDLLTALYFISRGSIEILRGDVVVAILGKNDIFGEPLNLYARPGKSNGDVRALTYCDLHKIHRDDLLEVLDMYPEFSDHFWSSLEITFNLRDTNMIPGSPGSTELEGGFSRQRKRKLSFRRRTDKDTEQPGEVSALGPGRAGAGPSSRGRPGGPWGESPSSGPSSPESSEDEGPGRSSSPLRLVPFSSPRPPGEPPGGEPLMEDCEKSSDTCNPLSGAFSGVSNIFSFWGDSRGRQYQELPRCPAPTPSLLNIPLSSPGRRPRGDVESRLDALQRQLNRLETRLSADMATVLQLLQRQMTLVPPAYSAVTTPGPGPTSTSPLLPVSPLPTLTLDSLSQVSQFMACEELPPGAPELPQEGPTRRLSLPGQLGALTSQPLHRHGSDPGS

| Compound | Kb [1] | Kb [3] | IC50 [2] | inhibition at 30 µM [2] |
| --- | --- | --- | --- | --- |
| CN[C@@H]1CCN(c2cc(-c3[nH]ncc3Cl)nc(N)n2)C1 [Example 4-3, (R)-4-(4-chloro-1H-pyrazol-5-yl)-6-(3-(methylamino)pyrrolidin-1-yl)pyrimidin-2-amine] | 1.26 nM | 1.26 nM | – | 34% |
| Cc1cn[nH]c1-c1cc(N2CC[C@@H](N)C2)nc(N)n1 [Example 4-5] | 2.51 nM | 10 nM | – | 18% |
| CN[C@@H]1CCN(c2cc(-c3cnn(C)c3)nc(N)n2)C1 [Example 8-2] | 1.26 nM | 31.6 nM | – | 13% |
| CN[C@@H]1CCN(c2cc(-c3cnn(C4CC4)c3)nc(N)n2)C1 [Example 8-4] | 20 nM | 50.1 nM | – | 54% |
| CN[C@@H]1CCN(c2cc(N)nc(-c3cnn(C)c3C)c2)C1 [Example 14-1, (R)-6-(1,5-dimethyl-1H-pyrazol-4-yl)-4-(3-(methylamino)pyrrolidin-1-yl)pyridin-2-amine dihydrochloride] | 12.6 nM | 20 nM | – | – |
| CNC1CN(c2cc(-c3cc(C(F)(F)F)n[nH]3)nc(N)n2)C1 [Example 15-2] | 10 nM | – | – | – |
| Cc1cn[nH]c1-c1cc(N2C[C@H]3CCCN[C@H]3C2)nc(N)n1 [Example 16-7, ditrifluoroacetate] | 6.31 nM | – | ≥ 100000 nM | – |
| CN[C@@H]1CCN(c2cc(-c3[nH]ncc3C(F)F)nc(N)n2)C1 [Example 16-8, ditrifluoroacetate] | 25.1 nM | – | – | – |
| CN[C@@H]1CCN(c2cc(-c3[nH]ncc3C(F)(F)F)nc(N)n2)C1 [Example 16-9, ditrifluoroacetate] | 20 nM | – | – | – |
| CNC1CN(c2cc(-c3[nH]ncc3Br)nc(N)n2)C1 [Example 16-13] | 5.01 nM | – | – | – |
| CN[C@@H]1CCN(c2cc(-c3[nH]ncc3SC)nc(N)n2)C1 [Example 16-14] | 25.1 nM | – | – | – |
| CNC1CN(c2cc(-c3[nH]nc(C)c3C)nc(N)n2)C1 [Example 17-1] | 1.58 nM | – | ≥ 31600 nM | – |
| CNC1CN(c2cc(-c3[nH]nc(C)c3Cl)nc(N)n2)C1 [Example 17-5] | 0.794 nM | – | 25100 nM | – |
| Cc1n[nH]c(-c2cc(N3CC(N)C3)nc(N)n2)c1Cl [Example 17-6, ditrifluoroacetate] | 12.6 nM | – | – | – |
| CNC1CN(c2cc(-c3[nH]nc(C(F)F)c3C)nc(N)n2)C1 [Example 17-11, ditrifluoroacetate] | 3.16 nM | – | – | – |
| CN[C@@H]1CCN(c2cc(N)nc(-c3[nH]ncc3C)c2)C1 [Example 18-1, ditrifluoroacetate] | 0.631 nM | – | – | – |

Now from value to molecule, other results behind:

| Kb [1] | Kb [3] | Compound | IC50 [2] | inhibition at 30 µM [2] |
| --- | --- | --- | --- | --- |
| 0.501 nM | 1.26 nM | CN[C@@H]1CCN(c2cc(-c3[nH]ncc3C)nc(N)n2)C1 [Example 4-1, (R)-4-(4-methyl-1H-pyrazol-5-yl)-6-(3-(methylamino)pyrrolidin-1-yl)pyrimidin-2-amine] | ≥ 100000 nM | 14% |
| 20 nM | 6.31 nM | CN[C@@H]1CCN(c2cc(-c3[nH]nc(C)c3C)nc(N)n2)C1 [Example 7-1, (R)-4-(3,4-dimethyl-1H-pyrazol-5-yl)-6-(3-(methylamino)pyrrolidin-1-yl)pyrimidin-2-amine dihydrochloride] | – | 14% |
| 20 nM | 31.6 nM | CCc1n[nH]c(-c2cc(N3CC[C@@H](NC)C3)nc(N)n2)c1C [Example 7-3] | – | – |
| 3.98 nM | – | CN[C@@H]1CCN(c2cc(-c3[nH]nc(C)c3F)nc(N)n2)C1 [Example 17-3] | – | – |
| 5.01 nM | – | CN[C@H]1CCN(c2cc(-c3[nH]nc(C)c3Cl)nc(N)n2)C1 [Example 17-4, dihydrochloride] | – | 39% |
| 39.8 nM | – | CN[C@@H]1CCN(c2cc(-c3[nH]nc(C)c3O)nc(N)n2)C1 [Example 17-8] | – | – |
| 3.98 nM | – | CN[C@@H]1CCN(c2cc(-c3[nH]nc(C)c3OC)nc(N)n2)C1 [Example 17-9] | – | – |
| 50.1 nM | – | CCc1n[nH]c(-c2cc(N3CC[C@@H](NC)C3)nc(N)n2)c1F [Example 17-13] | – | – |
| 5.01 nM | – | CN[C@@H]1CCN(c2cc(-c3[nH]nc(OC)c3Cl)nc(N)n2)C1 [Example 17-17] | – | 49% |
